Test results published in article PMC2988090 (Nature, 2010).
Entries after “also recorded” stand apart in the source; their conditions may differ.

Target: T1, dialyzed COI1-ASK1 in the presence of JAZ1 (Arabidopsis thaliana, UniProt O04197+Q9LMA8)
T1 sequence (O04197 1-592): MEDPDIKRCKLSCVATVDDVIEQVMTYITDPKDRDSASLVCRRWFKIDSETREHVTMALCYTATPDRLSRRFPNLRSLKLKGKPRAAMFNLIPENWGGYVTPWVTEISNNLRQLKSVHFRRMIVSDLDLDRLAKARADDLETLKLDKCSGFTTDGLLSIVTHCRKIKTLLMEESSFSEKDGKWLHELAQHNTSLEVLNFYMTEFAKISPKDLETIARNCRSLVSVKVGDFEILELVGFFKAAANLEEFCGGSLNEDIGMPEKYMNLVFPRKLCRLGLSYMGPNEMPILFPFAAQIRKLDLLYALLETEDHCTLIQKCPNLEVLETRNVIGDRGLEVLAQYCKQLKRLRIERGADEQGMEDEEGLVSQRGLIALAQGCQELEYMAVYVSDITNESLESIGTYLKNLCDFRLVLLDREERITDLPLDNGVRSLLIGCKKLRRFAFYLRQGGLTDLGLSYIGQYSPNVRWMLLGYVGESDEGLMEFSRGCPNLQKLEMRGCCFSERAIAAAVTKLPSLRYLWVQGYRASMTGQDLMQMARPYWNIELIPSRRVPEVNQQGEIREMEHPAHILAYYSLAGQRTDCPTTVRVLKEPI
T1 sequence (Q39255 1-160 partner): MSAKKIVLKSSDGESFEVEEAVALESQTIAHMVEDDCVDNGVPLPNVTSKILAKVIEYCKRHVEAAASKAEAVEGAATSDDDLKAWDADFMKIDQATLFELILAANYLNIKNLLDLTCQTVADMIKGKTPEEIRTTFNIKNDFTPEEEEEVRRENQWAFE
T1 sequence (Q9LMA8 1-253): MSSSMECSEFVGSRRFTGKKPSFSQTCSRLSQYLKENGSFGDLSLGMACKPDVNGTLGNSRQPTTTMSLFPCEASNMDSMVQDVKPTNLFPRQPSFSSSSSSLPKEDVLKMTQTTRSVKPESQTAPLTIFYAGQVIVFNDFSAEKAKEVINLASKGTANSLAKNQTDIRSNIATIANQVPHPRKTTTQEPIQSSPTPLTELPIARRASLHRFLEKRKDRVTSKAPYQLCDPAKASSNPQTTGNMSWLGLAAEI
Test: inositol phosphate reconstitution assay
Assay type: binding
Details: dialyzed COI1, 100 nM ^3H-coronatine, 1 µM inositol phosphate

Compound: O=P(O)(O)OC1C(OP(=O)(O)O)C(OP(=O)(O)O)C(OP(=O)(O)O)C(OP(=O)(O)O)C1OP(=O)(O)O (stereo not drawn) [InsP6, inositol hexakisphosphate]
- support of COI1-JAZ1 co-receptor ligand binding activity: not favorable for activity

Compound: O=P(O)(O)O[C@@H]1[C@H](O)[C@H](O)[C@@H](OP(=O)(O)O)[C@H](OP(=O)(O)O)[C@H]1O [inositol (1,4,5) triphosphate]
- support of COI1-JAZ1 co-receptor ligand binding activity: does not

Compound: O=P(O)(O)O[C@H]1[C@H](OP(=O)(O)O)[C@@H](OP(=O)(O)O)[C@@H](O)[C@@H](O)[C@@H]1OP(=O)(O)O [inositol (1,4,5,6) tetrakisphosphate]
- support of COI1-JAZ1 co-receptor ligand binding activity: supports the activity; also recorded: support high affinity hormone binding
